Patent US20160095823A1, “METHODS OF USING PROPOFOL DERIVATIVES FOR ANALGESIA” (priority 2005, published 2016)
Values joined by “and” are separate entries in the source; they are usually repeats but may differ in a detail not shown here. Identical values can stand only once. Like-named read-outs stand apart in the source and are kept apart here.

What was measured:
[1] = molecular target: T1, α1 homomeric glycine receptors (Rattus norvegicus, UniProt P07727); test: Picrotoxin block of the 1000 μM glycine current (check of β subunit expression); type: cell-based; settings: picrotoxin 1000 μM co-applied with 1000 μM glycine
T1 construct: expressed in transfected cells; host or cells: HEK 293, transient electroporation, cDNA in pCIS2, GFP cDNA co-transfected as marker
T1 sequence (P07727 29-457): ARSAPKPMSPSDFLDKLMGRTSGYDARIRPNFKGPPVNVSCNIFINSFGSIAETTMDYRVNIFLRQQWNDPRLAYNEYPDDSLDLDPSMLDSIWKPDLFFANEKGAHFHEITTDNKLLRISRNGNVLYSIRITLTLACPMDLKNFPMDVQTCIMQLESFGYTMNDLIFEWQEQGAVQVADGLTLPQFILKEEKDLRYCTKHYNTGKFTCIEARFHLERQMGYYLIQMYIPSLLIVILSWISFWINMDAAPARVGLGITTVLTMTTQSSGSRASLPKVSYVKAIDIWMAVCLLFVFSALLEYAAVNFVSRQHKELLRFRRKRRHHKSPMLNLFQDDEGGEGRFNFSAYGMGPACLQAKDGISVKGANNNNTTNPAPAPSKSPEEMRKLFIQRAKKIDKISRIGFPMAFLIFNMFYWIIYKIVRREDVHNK
Protocol: (§1) Reduced sensitivity to 1000 μM picrotoxin in α1β heteromeric receptors was used as an assay of the efficacy of β subunit expression. Cells were cultured in Dulbecco's modified Eagle's medium (DMEM, Biochrom, Berlin, Germany), supplemented with 10% fetal calf serum (FCS, Biochrom, Berlin, Germany), 100 U ml^−1 penicillin and 100 μg ml^−1 streptomycin at 37° C. in a 5% CO2/air incubator. For transfection, cells were suspended in a buffer containing 50 mM K2HPO4 and 20 mM K-acetate, pH 7.35. […] To visualize transfected cells, they were co-transfected with cDNA of green fluorescent protein (GFP 10 μg ml^−1). For transfection, we used an electroporation device by EquiBio (Kent, UK). Transfected cells were replated on glass-coverslips and incubated 15-24 h before recording.
(§2) A total of 94 cells were included in the study.

[2] = molecular target: T2, α1β glycine receptors (Rattus norvegicus, UniProt P07727); test: as above; type: cell-based; settings: picrotoxin 1000 μM co-applied with 1000 μM glycine
T2 construct: expressed in transfected cells; host or cells: HEK 293, transient electroporation, α:β cDNA 1:10, pCIS2 vector
Protocol: as §1, §2

[3] = molecular target: T3, α1β heteromeric glycine receptors (Rattus norvegicus, UniProt P07727); test: Direct activation of Cl- inward currents (agonist applied alone), whole-cell patch clamp, HEK 293; type: cell-based; settings: for directly activated current as % of the maximum glycine (1000 μM) response: 3000 μM compound, without glycine, α1β, n=3; for EC50: read-out: half-maximum concentration (EC50) for direct activation
T3 construct: expressed in transfected cells; host or cells: HEK 293, transient electroporation, α:β cDNA 1:10, pCIS2 vector
Protocol: as §1
(§3) Standard whole-cell experiments (Hamill et al., (1981) Pflügers Arch., 391, 85-100.) were performed at −30 mV membrane potential. A tight electrical seal of several GΩ formed between the cell membrane and a patch-clamp electrode allows inward currents due to agonist-induced channel activation to resolve in the pA range. Electrical resistance of the pipettes was around 5 MΩ, corresponding to a total access resistance in the whole-cell configuration of about 10 MΩ. An ultra-fast liquid filament switch technique (Franke et al., (1987) Neurosci. Lett., 77, 199-204) was used for the application of the agonist in pulses of 2 s duration. The agonist and/or the drug under investigation were applied to the cells via a smooth liquid filament achieved with a single outflow (glass tubing 0.15 mm inner diameter) connected to a piezo crystal. The cells were placed at the interface between this filament and the continuously flowing background solution. When a voltage pulse was applied to the piezo, the tube was moved up and down onto or away from the cell under investigation. […] The contents of these reservoirs were mixed at a junction immediately before entering the superfusion chamber.
(§4) A new cell was used for each drug and each protocol, at least three different experiments were performed for each setting. The amount of the diluent ethanol corresponding to the highest drug concentration used was 34 000 μM.
(§5) For data acquisition and further analysis the inventors used the Axopatch 200B amplifier in combination with pClamp6 software (Axon Instruments, Union City, Calif., USA). Currents were filtered at 2 kHz. Fitting procedures were performed using a non-linear least-squares Marquardt-Levenberg algorithm. Details are provided in the appropriate figure legends or in the results section.
(§6) Activated or co-activated currents were normalized to their own maximum response. […] In these cases, the maximum response was the response at the highest concentration of the test compound for which a reliable response could be recorded.

[4] = molecular target: T1, α1 homomeric glycine receptors; test: as above; type: cell-based; settings: for directly activated current as % of the maximum glycine (1000 μM) response: 3000 μM compound, without glycine, α1, n=3; for EC50: read-out: half-maximum concentration (EC50) for direct activation
Protocol: as §1, §3, §4, §5, §6

[5] = system: voltage-operated sodium channels; settings: cited from earlier work
[6] = molecular target: T3, α1β heteromeric glycine receptors; test: Co-activation of the current response to 10 μM glycine, whole-cell patch clamp, transfected HEK 293 cells; type: cell-based; settings: for nH (Hill coefficient), coactivating response, α1β heteromer: co-applied with 10 μM glycine, Hill fit, ± s.d.; for half-maximum concentration for glycine receptor co-activation, fold lower than for half-maximum blockade of sodium channels: selectivity versus reported sodium channel block
Protocol: as §1
(§7) The phenol derivatives under investigation were prepared as 1 M stock solution in ethanol, light-protected and stored in glass vessels at −20° C. Concentrations were calculated from the amount injected into the glass vials. Drug-containing vials were vigorously vortexed for 60 min.
(§8) Patch electrodes contained [mM] KCl 140, MgCl2 2, EGTA 11, HEPES 10, glucose 10; the bath solution contained [mM] NaCl 162, KCl 5.3, NaHPO4 0.6, KH2PO4 0.22, HEPES 15, glucose 5.6.
as §3, §4, §5, §6
(§9) Only results obtained with α1β receptors were enrolled in the statistical tests. […] Statistical analysis was performed in order to reveal differences in the maximum effect on the one hand and in the concentrations required to achieve half-maximum effect (EC50) on the other between halogenated and non-halogenated analogues, between compounds with one vs. two methyl groups, or between compounds with ortho- or meso-position of the methyl groups with respect to the phenolic hydroxyl group, respectively. Curve fitting and parameter estimation of the Hill curves were performed using the program “PROC NLMIXED” of SAS Release 8.02.

[7] = molecular target: T1, α1 homomeric glycine receptors; test: as above; type: cell-based; settings: for nH (Hill coefficient), coactivating response, α1 homomer: co-applied with 10 μM glycine, Hill fit, ± s.d.
Protocol: as §1, §7, §8, §3, §4, §5, §6, §9

[8] = molecular target: T4, glycine receptors (Rattus norvegicus, UniProt P07727); test: Inhibitory effects (open channel block) on co-application with saturating 1000 μM glycine; type: cell-based; settings: co-applied with 1000 μM glycine, 3 experiments
T4 construct: expressed in transfected cells; host or cells: HEK 293
T4 sequence (P07727 29-457): T1 sequence (P07727 29-457)
Protocol: as §3
A new cell was used for each drug and each protocol, at least three different experiments were performed for each setting. […]

[9] = molecular target: T5, α-subunits of glycine receptors from the rat coexpressed with human β subunits (Rattus norvegicus, UniProt P07727); test: Example 2: co-activation of the current response to 10 μM glycine, whole-cell mode, HEK293 cells; type: cell-based; settings: for EC50 values in the presence of glycine (co-activation): Example 2; for concentrations at which the co-activating effect is overridden by inhibitory effects: co-applied with 10 μM glycine; for enhancement of glycine receptor function / EC50 for co-activation, fold lower concentrations than propofol: glycine receptors heterologously expressed in HEK293 cells
T5 construct: expressed in transfected cells; host or cells: HEK293
Protocol: (§10) Small cells were studied in the whole-cell mode using an ultra-fast application device.
The results presented in FIG. 10 were corroborated by repeating the tests carried out to provide the data shown in FIG. 10 to provide the data shown in FIG. 11. […] Note from FIGS. 10 and 11 that the co-activating effect is observed in the concentration range between […]. The co-activating effect is overridden by inhibitory effects at higher concentrations (≧1000 μM). […] Small cells were studied in the whole-cell mode using an ultra-fast application device.

[10] = molecular target: T5, α-subunits of glycine receptors from the rat coexpressed with human β subunits; test: Example 2: direct activation in the absence of glycine, whole-cell mode, HEK293 cells; type: cell-based; settings: for EC50 values in the absence of the natural transmitter glycine: Example 2; for direct activating effect, fold higher concentrations than the co-activating effect: absence of glycine versus 10 μM glycine
From the text: as §10
The solid line is a Hill fit to the data with the indicated parameters. Note that the direct activating effect is observed at 1000-fold higher concentrations than the co-activating effect.

[11] = read-out: EC50 (μM), normalised coactivating response, α1β heteromer
[12] = read-out: EC50 (μM), normalised coactivating response, α1 homomer

T5 sequence (P48167 23-497 partner, one chain of several): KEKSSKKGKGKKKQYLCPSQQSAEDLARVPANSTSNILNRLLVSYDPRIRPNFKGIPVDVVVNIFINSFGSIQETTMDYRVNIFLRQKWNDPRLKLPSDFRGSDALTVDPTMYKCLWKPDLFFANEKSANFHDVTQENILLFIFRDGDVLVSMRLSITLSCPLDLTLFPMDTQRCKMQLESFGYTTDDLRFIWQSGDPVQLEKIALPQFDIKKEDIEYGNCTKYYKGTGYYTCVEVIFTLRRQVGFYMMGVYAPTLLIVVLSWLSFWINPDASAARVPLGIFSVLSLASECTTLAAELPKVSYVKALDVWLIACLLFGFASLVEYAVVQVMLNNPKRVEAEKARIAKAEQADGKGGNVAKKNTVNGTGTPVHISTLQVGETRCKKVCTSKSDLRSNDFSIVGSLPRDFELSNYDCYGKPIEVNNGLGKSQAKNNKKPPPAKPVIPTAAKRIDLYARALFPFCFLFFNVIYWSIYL
T3 sequence (P20781 23-496 partner, one chain of several): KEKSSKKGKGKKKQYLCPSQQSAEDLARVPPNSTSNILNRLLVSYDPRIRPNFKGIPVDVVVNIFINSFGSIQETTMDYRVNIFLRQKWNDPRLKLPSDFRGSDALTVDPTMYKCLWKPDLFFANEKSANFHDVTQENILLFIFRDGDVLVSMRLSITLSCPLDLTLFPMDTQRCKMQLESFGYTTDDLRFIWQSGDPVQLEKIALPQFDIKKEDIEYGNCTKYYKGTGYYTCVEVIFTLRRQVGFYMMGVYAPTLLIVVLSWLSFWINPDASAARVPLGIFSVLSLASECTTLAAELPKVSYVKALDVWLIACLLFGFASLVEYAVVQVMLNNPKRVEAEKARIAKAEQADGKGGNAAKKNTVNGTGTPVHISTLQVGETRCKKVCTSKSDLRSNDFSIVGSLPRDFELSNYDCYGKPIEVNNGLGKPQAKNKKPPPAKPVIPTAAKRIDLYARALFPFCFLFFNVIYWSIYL
T2 sequence (P20781 23-496 partner, one chain of several): as above

picrotoxin
block of receptors by picrotoxin [1]: 55±0.05% | block of receptors by picrotoxin [2]: 19±0.05%

NCC(=O)O [glycine]
current response evoked by 10 μM glycine, % of the response to 1000 μM glycine ([3]; α1β receptors, n=34): 21±7% | current response evoked by 10 μM glycine, % of the response to 1000 μM glycine ([4]; α1 receptors, n=24): 46±5%

Cc1cc(O)ccc1Cl [3 methyl-4-chlorophenol]
IC50 ([5]; resting state, read-out: half-maximum block of sodium channels): 400 µM | EC50 [6]: 4 µM | nH (Hill coefficient), coactivating response, α1β heteromer [6]: 1.2 ± 0.3 | half-maximum concentration for glycine receptor co-activation, fold lower than for half-maximum blockade of sodium channels [6]: ~100 fold | EC50 [7]: 8 ± 5 µM | nH (Hill coefficient), coactivating response, α1 homomer [7]: 1.1 ± 0.4 | concentration producing a reduction in peak current amplitude with response rebound [8]: > 600 µM

CC(C)c1cc(I)cc(C(C)C)c1O [4-iodopropofol, 4-iodo-2,6 di-isopropylphenol]
EC50 values in the presence of glycine (co-activation) [9]: single-digit nanomolar range | concentrations at which the co-activating effect is overridden by inhibitory effects [9]: > 1000 µM | enhancement of glycine receptor function / EC50 for co-activation, fold lower concentrations than propofol [9]: 1000 fold | EC50 values in the absence of the natural transmitter glycine [10]: single-digit micromolar range | direct activating effect, fold higher concentrations than the co-activating effect [10]: 1000 fold

CC(C)c1cc(Br)cc(C(C)C)c1O [4-bromopropofol, 4-bromo-2,6 di-isopropylphenol]
EC50 values in the presence of glycine (co-activation) [9]: single-digit nanomolar range | concentrations at which the co-activating effect is overridden by inhibitory effects [9]: > 1000 µM | enhancement of glycine receptor function / EC50 for co-activation, fold lower concentrations than propofol [9]: 1000 fold | EC50 values in the absence of the natural transmitter glycine [10]: single-digit micromolar range | direct activating effect, fold higher concentrations than the co-activating effect [10]: 1000 fold

Cc1cccc(O)c1 [3 methylphenol]
nH (Hill coefficient), coactivating response, α1β heteromer [6]: 1.0 ± 0.1 | EC50 [6, 11]: 222 ± 45 µM | nH (Hill coefficient), coactivating response, α1 homomer [7]: 0.9 ± 0.3 | EC50 [7, 12]: 59 ± 19 µM

Cc1cc(C)cc(O)c1 [3,5 dimethylphenol]
nH (Hill coefficient), coactivating response, α1β heteromer [6]: 1.3 ± 0.2 | EC50 [6, 11]: 308 ± 46 µM | nH (Hill coefficient), coactivating response, α1 homomer [7]: 1.7 ± 0.9 | EC50 [7, 12]: 254 ± 139 µM | directly activated current as % of the maximum glycine (1000 μM) response [3]: 38±5% | EC50 [3]: 1470 ± 83 µM | directly activated current as % of the maximum glycine (1000 μM) response [4]: 30±12% | EC50 [4]: 1470 ± 208 µM

Cc1cc(O)cc(C)c1Cl [3,5 dimethyl-4-chlorophenol]
nH (Hill coefficient), coactivating response, α1β heteromer [6]: 1.3 ± 0.1 | EC50 [6, 11]: 11 ± 2 µM | half-maximum concentration for glycine receptor co-activation, fold lower than for half-maximum blockade of sodium channels [6]: about 10 fold | nH (Hill coefficient), coactivating response, α1 homomer [7]: 1.4 ± 2.9 | EC50 [7, 12]: 13 ± 4 µM | concentration producing a reduction in peak current amplitude with response rebound [8]: > 300 µM

Cc1ccccc1O [2 methylphenol]
EC50 [6]: 448 ± 89 µM | nH (Hill coefficient), coactivating response, α1β heteromer [6]: 1.2 ± 0.2 | EC50 [7]: 70 ± 29 µM | nH (Hill coefficient), coactivating response, α1 homomer [7]: 0.7 ± 0.1

Cc1cccc(C)c1O [2,6 dimethylphenol]
IC50 ([5]; membrane potential close to the physiological resting potential, read-out: half-maximum blockade of voltage-operated neuronal sodium channels): 187 µM | nH (Hill coefficient), coactivating response, α1β heteromer [6]: 1.2 ± 0.1 | EC50 [6, 11]: 370 µM and 373 µM | nH (Hill coefficient), coactivating response, α1 homomer [7]: 1.5 ± 0.4 | EC50 [7, 12]: 226 ± 104 µM | directly activated current as % of the maximum glycine (1000 μM) response [3]: 33±10% | EC50 [3]: 1550 ± 164 µM | directly activated current as % of the maximum glycine (1000 μM) response [4]: 32±6% | EC50 [4]: 1410 ± 101 µM
